Data from paper PMC6934184, “Selective DNA-PKcs inhibition extends the therapeutic index of localized radiotherapy and chemotherapy” (The Journal of Clinical Investigation, 2019).

Target: T1, ERBB2 (HER2) (Homo sapiens, UniProt P04626)
T1 construct: purchased Thermo Fisher Scientific (Life Technologies) SelectScreen
Experiment: SelectScreen Z'LYTE
Type: biochemical
Summary of the method: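 Percent values come from Thermo SelectScreen profiling of NU5455, combining activity and binding assays. CSF1R was run in Z'LYTE format at Km app ATP, and CAMK1 in Adapta format with ATP listed at 10.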

T1 sequence (P04626 23-1255): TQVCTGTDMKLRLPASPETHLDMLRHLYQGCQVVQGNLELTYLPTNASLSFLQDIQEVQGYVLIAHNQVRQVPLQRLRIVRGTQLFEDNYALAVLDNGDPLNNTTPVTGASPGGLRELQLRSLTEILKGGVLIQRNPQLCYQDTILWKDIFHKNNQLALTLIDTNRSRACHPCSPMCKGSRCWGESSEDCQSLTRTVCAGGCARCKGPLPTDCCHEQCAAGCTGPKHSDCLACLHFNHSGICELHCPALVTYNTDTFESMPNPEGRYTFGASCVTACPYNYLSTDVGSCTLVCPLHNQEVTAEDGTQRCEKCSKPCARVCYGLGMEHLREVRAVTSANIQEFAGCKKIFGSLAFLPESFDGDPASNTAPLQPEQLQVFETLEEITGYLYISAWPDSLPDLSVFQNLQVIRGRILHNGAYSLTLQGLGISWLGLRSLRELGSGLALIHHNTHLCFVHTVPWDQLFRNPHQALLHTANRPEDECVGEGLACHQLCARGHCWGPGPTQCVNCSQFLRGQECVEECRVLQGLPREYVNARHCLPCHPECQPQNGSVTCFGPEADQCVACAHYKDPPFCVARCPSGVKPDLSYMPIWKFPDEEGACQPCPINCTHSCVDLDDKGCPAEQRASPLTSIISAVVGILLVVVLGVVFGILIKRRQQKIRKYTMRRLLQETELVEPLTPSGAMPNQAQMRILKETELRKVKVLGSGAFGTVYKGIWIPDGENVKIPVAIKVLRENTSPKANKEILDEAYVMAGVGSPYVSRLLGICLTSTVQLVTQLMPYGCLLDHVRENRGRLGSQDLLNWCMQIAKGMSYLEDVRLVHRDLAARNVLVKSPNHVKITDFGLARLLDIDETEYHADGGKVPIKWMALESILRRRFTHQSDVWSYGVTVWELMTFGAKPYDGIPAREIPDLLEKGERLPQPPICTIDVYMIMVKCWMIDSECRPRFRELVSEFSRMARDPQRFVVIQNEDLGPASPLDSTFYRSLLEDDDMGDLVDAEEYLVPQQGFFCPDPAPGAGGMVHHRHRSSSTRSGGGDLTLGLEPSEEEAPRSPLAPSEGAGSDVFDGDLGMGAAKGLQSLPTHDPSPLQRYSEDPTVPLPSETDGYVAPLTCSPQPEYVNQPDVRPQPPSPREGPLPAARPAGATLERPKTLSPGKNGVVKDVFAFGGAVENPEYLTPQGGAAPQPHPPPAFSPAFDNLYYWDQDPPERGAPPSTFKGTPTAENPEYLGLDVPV

Compound: CN(C(=O)CN1CCOCC1)c1ccc2sc3c(-c4cccc5c(=O)cc(N6CC7CCC(C6)O7)oc45)cccc3c2c1 [NU5455]
- inhibition at 1 µM: 5.6%
